Entries after “also recorded” stand apart in the source; their conditions may differ. Square brackets hold non-standard residues; d marks the D form. Ends that are not written are not given here. Oic = O=C(O)[C@@H]1C[C@@H]2CCCC[C@@H]2N1; Tic = O=C(O)[C@@H]1Cc2ccccc2CN1

Data set [1] addresses T1, GzmA in intact NK‐92 cells (Homo sapiens, UniProt P12544).
T1 construct: host or cells: NK-92
T1 sequence (P12544 29-262): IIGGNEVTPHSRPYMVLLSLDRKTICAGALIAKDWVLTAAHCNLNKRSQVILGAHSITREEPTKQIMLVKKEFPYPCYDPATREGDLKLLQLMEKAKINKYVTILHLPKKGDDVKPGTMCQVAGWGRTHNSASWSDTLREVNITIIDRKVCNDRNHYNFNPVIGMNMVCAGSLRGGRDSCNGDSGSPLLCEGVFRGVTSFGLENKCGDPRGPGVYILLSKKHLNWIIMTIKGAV
Put plainly: Labeling of GzmA in intact NK-92 cells (in-gel fluorescence). The class given is cell-based. The following applies: 2 h, 37 °C; for Labeling of GzmA in intact NK-92 cells: 1x10^6 NK-92 cells, lysis then in-gel fluorescence and GzmA western blot; for Cell permeability / cellular uptake: intact NK-92 cells, judged from labeling in intact cells. On the procedure:
Figure 4 Characterization of qABPs in native proteomes. A) Labeling of GzmA by 5 and 6 in lysates of various cell lines (1 h, 37 °C). B) Stability of 5 and 6 in buffer and cell media (11 h, 37 °C). The hydrolysis of probes was measured by monitoring the production of Cy5 fluorescence signal over time. […] C) Labeling of GzmA by probes 3 –6 in NK‐92 cells (2 h, 37 °C). D) Flow cytometry analysis of protein labeling in NK‐92 cells by 3 –5. […] E) Flow cytometry analysis of concentration‐dependent GzmA labeling in NK‐92 cells and S/N of 5 (5 μM, 2 h, 37 °C). […] F) Flow cytometry analysis of protein labeling by 5 in MDA‐MB‐231 cells co‐cultured with NK‐92 cells (see Supporting Information for conditions). […] TEXT PRINTED IN THE PICTURE: (E) qABP 5: S/N = 4 […]
Final reaction volume was 20 µL. […]
Conditions for Figure 4C: Various concentrations of probes 3-6 were incubated with 1x10^6 NK-92 cells for 2 h at 37 °C in a humidified incubator. Cells were centrifuged, washed with PBS (x2) and lysed with ~40 µL of ice-cold RIPA buffer. Lysates were collected, protein concentration was measured with PIERCE BCA protein assay and samples were analyzed with in-gel fluorescence and GzmA western blotting.
D. Flow cytometry analysis […]
Conditions for Figure 4F: In a 6-well cell culture plate, 5x10^5 MDA-MB-231 cells were seeded and allowed to attach overnight. After confirming cell attachment under the microscope, media were removed and fresh media containing 2x10^6 NK-92 cells (or NK-92 culture media alone for control) were added along with simultaneous addition of qABP 5 (5 µM). Cells were co-cultured for the indicated times at 37 °C under 5% CO2 in a humidified atmosphere. […]
E. Synthesis of compounds
1H, 13C and 31P spectra were acquired on a 500 MHz NMR in CDCl3 or CD3OD at 25 °C. The 1H chemical shifts are given in parts per million (δ) with respect to an internal tetramethylsilane (TMS, δ 0.00 ppm) standard. NMR data are reported in the following format: chemical shifts (multiplicity (s = singlet, d = doublet, t = triplet, m = multiplet), coupling constants [Hz], integration). LCMS data were acquired on Agilent 1200 series LC/MS or Shimadzu Prominence-i LC-2030s instrument, whereas HRMS data were obtained on an Agilent Q-TOF LC/MS/MS instrument. All compounds are >95% pure by HPLC analysis.

The test system of data set [2] is lysates of MDA‐MB‐231, HEK293T, Jurkat, and HeLa cells. Put plainly: Labeling in lysates of GzmA nonexpressing cells. The following applies: HeLa lysates 1 mg/mL, 1 h, 37 °C. The class given is biochemical. As for the experimental part: Figure 4 Characterization of qABPs in native proteomes. A) Labeling of GzmA by 5 and 6 in lysates of various cell lines (1 h, 37 °C). B) Stability of 5 and 6 in buffer and cell media (11 h, 37 °C). The hydrolysis of probes was measured by monitoring the production of Cy5 fluorescence signal over time. […] C) Labeling of GzmA by probes 3 –6 in NK‐92 cells (2 h, 37 °C). D) Flow cytometry analysis of protein labeling in NK‐92 cells by 3 –5. […] E) Flow cytometry analysis of concentration‐dependent GzmA labeling in NK‐92 cells and S/N of 5 (5 μM, 2 h, 37 °C). […]
Briefly, hGzmA (50 nM) was incubated with either inhibitor 1 or 2 (200 nM), and GzmA fluorogenic substrate […] (100 µM) in 50 mM Tris, 150 mM NaCl, 0.01% Triton X-100 (pH 8) for 15 hr at 37 °C. Recorded fluorescence at Ex/Em: 380/460 nm for residual GzmA […]
Cat. No. CRL-2570) and 4T1 (ATCC Cat. No. CRL-2539) cells were cultured in RPMI supplemented with 10% fetal bovine serum (FBS), 1% penicillin/streptomycin (PS), and 2 mM L-glutamine, while HEK293T and MDA-MB-231 cells (ATCC Cat. No. HTB-26) were cultured in DMEM supplemented likewise as described above. […] The supernatant was collected, and protein concentration was measured using a Pierce BCA protein assay. […]
C. In-gel fluorescence imaging […]

As to [Tic]G[Oic]R [compound 6], in data set [1], the “Labeling of GzmA in intact NK-92 cells” value was “poor labeling” and the “Cell permeability / cellular uptake” value is “limited cell permeability; also recorded: cell impermeable”. In data set [2], the “Cross-reactivity in lysates of GzmA nonexpressing cells” value is reported as “no detectable cross‐reactivity”.
The like results for IGNR [compound 5] were, in that order, “effectively labeled active GzmA in intact cells”, “excellent cellular uptake” and “no detectable cross‐reactivity”.

Values taken from PMC12703428, “Development of Granzyme A Turn‐ON Fluorescent Activity‐Based Probes” (Chembiochem, 2025).
